# Reference: PubChem BioAssay AID328 (DTP/NCI, 2004)
# Values joined by “and” are separate entries in the source; they are usually repeats but may differ in a detail not shown here. Equal entries are not always repeated. Inconclusive results and toxic doses are left out.
# System: BDF1 mice, P388 leukemia ip, median survival T/C
# Experiment: NCI In Vivo Anticancer Drug Screen. Data for tumor model P388 Leukemia (intraperitoneal) in B6D2F1 (BDF1) mice
# Details: endpoint: median survival time, higher = longer survival
# Method in brief: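 Mice carrying the transplantable tumour receive compound or vehicle. Survival is followed in each arm, and the treated measure is divided by the vehicle measure.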
# [1] = dose: 100.0 mg/kg/injection, schedule: Q04DX003 (ip), vehicle: saline
# [2] = dose: 200.0 mg/kg/injection, schedule: Q04DX003 (ip), vehicle: saline
# [3] = dose: 100.0 mg/kg/injection, schedule: Q01DX009 (ip), vehicle: saline with Tween-80
# [4] = dose: 200.0 mg/kg/injection, schedule: Q01DX009 (ip), vehicle: saline with Tween-80
# [5] = dose: 50.0 mg/kg/injection, schedule: Q04DX003 (ip), vehicle: Klucel (hydroxypropylcellulose) (HPC)
# [6] = dose: 100.0 mg/kg/injection, schedule: Q04DX003 (ip), vehicle: Klucel (hydroxypropylcellulose) (HPC)
# [7] = dose: 200.0 mg/kg/injection, schedule: Q04DX003 (ip), vehicle: Klucel (hydroxypropylcellulose) (HPC)
# [8] = dose: 50.0 mg/kg/injection, schedule: Q01DX009 (ip), vehicle: saline with Tween-80
# [9] = dose: 100.0 mg/kg/injection, schedule: Q01DX001 (ip), vehicle: saline with Tween-80
smiles,measurement,setting,value
NC(=O)NOCC(N)C(=O)O (centres undefined),T/C,[1],104 % of control
same,T/C,[2],100 % of control
same,T/C,"dose: 400.0 mg/kg/injection, schedule: Q04DX003 (ip), vehicle: saline",104 % of control
ClCCN(CCCl)c1cc(OCc2ccccc2)cc(OCc2ccccc2)c1,T/C,"dose: 6.25 mg/kg/injection, schedule: Q01DX009 (ip), vehicle: water",91 % of control
same,T/C,"dose: 12.5 mg/kg/injection, schedule: Q01DX009 (ip), vehicle: water",88 % of control
same,T/C,"dose: 25.0 mg/kg/injection, schedule: Q01DX009 (ip), vehicle: water",86 % of control
same,T/C,"dose: 25.0 mg/kg/injection, schedule: Q04DX003 (ip), vehicle: water",91 % of control
same,T/C,"dose: 50.0 mg/kg/injection, schedule: Q01DX009 (ip), vehicle: water",88 % of control
same,T/C,"dose: 50.0 mg/kg/injection, schedule: Q04DX003 (ip), vehicle: water",89 % of control
same,T/C,"dose: 100.0 mg/kg/injection, schedule: Q01DX009 (ip), vehicle: water",98 % of control
same,T/C,"dose: 100.0 mg/kg/injection, schedule: Q04DX003 (ip), vehicle: water",121 % of control
same,T/C,"dose: 200.0 mg/kg/injection, schedule: Q01DX009 (ip), vehicle: water",92 % of control and 97 % of control
same,T/C,"dose: 200.0 mg/kg/injection, schedule: Q04DX003 (ip), vehicle: water",97 % of control
same,T/C,"dose: 400.0 mg/kg/injection, schedule: Q04DX003 (ip), vehicle: water",89 % of control
NC(=O)c1ncc(-c2ccc(Cl)cc2)[nH]c1=O,T/C,[3],95 % of control
same,T/C,[4],90 % of control
same,T/C,"dose: 400.0 mg/kg/injection, schedule: Q01DX009 (ip), vehicle: saline with Tween-80",109 % of control
Cc1cccc(-c2nc3cc(Cl)ccc3c(=O)o2)c1,T/C,"dose: 50.0 mg/kg/injection, schedule: Q01DX009 (ip), vehicle: Klucel (hydroxypropylcellulose) (HPC)",104 % of control
same,T/C,[5],95 % of control
same,T/C,"dose: 100.0 mg/kg/injection, schedule: Q01DX009 (ip), vehicle: Klucel (hydroxypropylcellulose) (HPC)",109 % of control
same,T/C,[6],100 % of control
same,T/C,[7],95 % of control
S=P(N1CCCC1)(N1CC1)N1CC1,T/C,"dose: 5.0 mg/kg/injection, schedule: Q01DX009 (ip), vehicle: saline with Tween-80",158 % of control
same,T/C,"dose: 10.0 mg/kg/injection, schedule: Q01DX009 (ip), vehicle: saline with Tween-80",104 % of control
O=[N+]([O-])c1ccc(/C=[N+](\[O-])CCO)o1,T/C,[8],111 % of control
same,T/C,[3],113 % of control
same,T/C,[4],111 % of control
CCCCSC#N,T/C,"dose: 6.25 mg/kg/injection, schedule: Q01DX001 (ip), vehicle: saline",94 % of control
same,T/C,"dose: 12.5 mg/kg/injection, schedule: Q01DX001 (ip), vehicle: saline",100 % of control
O=C1CSc2cc[nH]c21,T/C,[5],90 % of control
same,T/C,[6],90 % of control
same,T/C,[7],104 % of control
C=C(C)C(=O)NCCCCCC(=O)Oc1ccc([N+](=O)[O-])cc1,T/C,"dose: 12.5 mg/kg/injection, schedule: Q01DX009 (ip), vehicle: saline with Tween-80",95 % of control
same,T/C,"dose: 25.0 mg/kg/injection, schedule: Q01DX009 (ip), vehicle: saline with Tween-80",116 % of control
same,T/C,[8],86 % of control and 106 % of control
same,T/C,[4],86 % of control
NC1CC2(CCC1=O)c1ccccc1-c1ccccc12 (centres undefined),T/C,"dose: 25.0 mg/kg/injection, schedule: Q01DX001 (ip), vehicle: saline with Tween-80",96 % of control
same,T/C,"dose: 50.0 mg/kg/injection, schedule: Q01DX001 (ip), vehicle: saline with Tween-80",94 % of control
same,T/C,[9],97 % of control
CCCn1/c(=N\N=O)sc2ccccc21,T/C,"dose: 50.0 mg/kg/injection, schedule: Q04DX003 (ip), vehicle: saline sonified",100 % of control
same,T/C,"dose: 100.0 mg/kg/injection, schedule: Q04DX003 (ip), vehicle: saline sonified",100 % of control
same,T/C,"dose: 200.0 mg/kg/injection, schedule: Q04DX003 (ip), vehicle: saline sonified",95 % of control
CC(C)CC(NC(=O)c1ccccc1)C(=O)O (centres undefined),T/C,"dose: 100.0 mg/kg/injection, schedule: Q04DX003 (ip), vehicle: alkali diluted with water",99 % of control
same,T/C,"dose: 200.0 mg/kg/injection, schedule: Q04DX003 (ip), vehicle: alkali diluted with water",99 % of control
same,T/C,"dose: 400.0 mg/kg/injection, schedule: Q04DX003 (ip), vehicle: alkali diluted with water",108 % of control
N#CN=CN1CCN(c2ccccn2)CC1,T/C,[8],91 % of control
same,T/C,[3],90 % of control
same,T/C,[4],93 % of control
CCC(C)C1NC(=O)C(NC(=O)c2c3nc4c(C(=O)NC5C(=O)NC(C(C)CC)C(=O)N6CCCC6C(=O)N(C)CC(=O)N(C)C(C(C)C)C(=O)OC5C)cc([N+](=O)[O-])c(C)c4oc-3c(C)c(=O)c2N)C(C)OC(=O)C(C(C)C)N(C)C(=O)CN(C)C(=O)C2CCCN2C1=O (centres undefined),T/C,"dose: 0.15 mg/kg/injection, schedule: Q04DX003 (ip), vehicle: saline + alcohol",197 % of control
same,T/C,"dose: 0.3 mg/kg/injection, schedule: Q04DX003 (ip), vehicle: saline + alcohol",157 % of control and 216 % of control
same,T/C,"dose: 0.6 mg/kg/injection, schedule: Q04DX003 (ip), vehicle: saline + alcohol",229 % of control and 221 % of control
same,T/C,"dose: 1.2 mg/kg/injection, schedule: Q04DX003 (ip), vehicle: saline + alcohol",270 % of control and 177 % of control
same,T/C,"dose: 2.4 mg/kg/injection, schedule: Q04DX003 (ip), vehicle: saline + alcohol",116 % of control
same,T/C,"dose: 50.0 micrograms/kg/injection, schedule: Q01DX009 (ip), vehicle: saline + alcohol",173 % of control
same,T/C,"dose: 100.0 micrograms/kg/injection, schedule: Q01DX009 (ip), vehicle: saline + alcohol",197 % of control
same,T/C,"dose: 200.0 micrograms/kg/injection, schedule: Q01DX009 (ip), vehicle: saline + alcohol",312 % of control
same,T/C,"dose: 400.0 micrograms/kg/injection, schedule: Q01DX009 (ip), vehicle: saline + alcohol",118 % of control
O=C1c2ccccc2C(=O)N1c1c2ccccc2cc2ccccc12,T/C,"dose: 100.0 mg/kg/injection, schedule: Q04DX003 (ip), vehicle: saline with Tween-80",100 % of control
same,T/C,"dose: 200.0 mg/kg/injection, schedule: Q04DX003 (ip), vehicle: saline with Tween-80",104 % of control
same,T/C,"dose: 400.0 mg/kg/injection, schedule: Q04DX003 (ip), vehicle: saline with Tween-80",100 % of control
N=N/C(=C\c1c(O)[nH]c2ccccc12)c1ccccc1,T/C,[5],100 % of control
same,T/C,[6],108 % of control
same,T/C,[7],108 % of control
same,T/C,"dose: 400.0 mg/kg/injection, schedule: Q04DX003 (ip), vehicle: Klucel (hydroxypropylcellulose) (HPC)",90 % of control
O=C1CSc2ccccc2N1,T/C,"dose: 50.0 mg/kg/injection, schedule: Q01DX001 (ip), vehicle: Klucel (hydroxypropylcellulose) (HPC)",109 % of control
same,T/C,"dose: 100.0 mg/kg/injection, schedule: Q01DX001 (ip), vehicle: Klucel (hydroxypropylcellulose) (HPC)",100 % of control
same,T/C,"dose: 200.0 mg/kg/injection, schedule: Q01DX001 (ip), vehicle: Klucel (hydroxypropylcellulose) (HPC)",116 % of control
COc1ccc(Cl)cc1NC1=CC(c2ccc(Cl)cc2)OC1=O (centres undefined),T/C,[9],100 % of control
same,T/C,"dose: 200.0 mg/kg/injection, schedule: Q01DX001 (ip), vehicle: saline with Tween-80",100 % of control
same,T/C,"dose: 400.0 mg/kg/injection, schedule: Q01DX001 (ip), vehicle: saline with Tween-80",95 % of control
CCCNC(C)(C)C(SS)c1ccc(C(F)(F)F)cc1 (centres undefined),T/C,"dose: 12.5 mg/kg/injection, schedule: Q04DX003 (ip), vehicle: other",100 % of control
same,T/C,"dose: 25.0 mg/kg/injection, schedule: Q04DX003 (ip), vehicle: other",110 % of control
same,T/C,"dose: 50.0 mg/kg/injection, schedule: Q04DX003 (ip), vehicle: other",105 % of control
O=C1CC(c2ccc(O)cc2)C2(O1)C(=O)OC(C(O)CO)C2O (centres undefined),T/C,"dose: 50.0 mg/kg/injection, schedule: Q01DX010 (ip), vehicle: saline",100 % of control
same,T/C,"dose: 100.0 mg/kg/injection, schedule: Q01DX010 (ip), vehicle: saline",100 % of control
same,T/C,"dose: 200.0 mg/kg/injection, schedule: Q01DX010 (ip), vehicle: saline",105 % of control
same,T/C,"dose: 400.0 mg/kg/injection, schedule: Q01DX010 (ip), vehicle: saline",105 % of control
N/C(=N\O)c1nn(C2OC(CO)C(O)C2O)c2ncnc(N)c12 (centres undefined),T/C,"dose: 12.5 mg/kg/injection, schedule: Q01DX009 (ip), vehicle: saline",102 % of control
same,T/C,"dose: 12.5 mg/kg/injection, schedule: Q04DX003 (ip), vehicle: saline",115 % of control
same,T/C,"dose: 25.0 mg/kg/injection, schedule: Q01DX009 (ip), vehicle: saline",114 % of control
same,T/C,"dose: 25.0 mg/kg/injection, schedule: Q04DX003 (ip), vehicle: saline",105 % of control and 116 % of control
same,T/C,"dose: 50.0 mg/kg/injection, schedule: Q04DX003 (ip), vehicle: saline",110 % of control and 112 % of control
same,T/C,[1],105 % of control and 116 % of control
same,T/C,[2],112 % of control
